Data taken from ChEMBL document CHEMBL1142453, “Imidazoles: SAR and development of a potent class of cyclin-dependent kinase inhibitors” (Bioorg Med Chem Lett, 2008).
Converted amounts (≈) assume the structure as drawn.

Columns and labels:
MCF7 = test: Antiproliferative activity against human MCF7 cells assessed as BrdU incorporation after 48 hrs; type: functional, cell-based; settings: MCF7, 48 h
[1] = target: Cyclin-dependent kinase 2 (Homo sapiens, UniProt P24941); test: Inhibition of CDK2
[2] = Fraction unbound in rat serum; type: ADME, cell-free
physchem = settings: buffer, pH 7.4
[3] = target: Cyclin-dependent kinase 4 (Homo sapiens, UniProt P11802); test: Inhibition of CDK4
LoVo = test: Antiproliferative activity against human LoVo cells assessed as BrdU incorporation after 48 hrs; type: functional, cell-based
[4] = Lipophilicity, log D at pH 7.4; settings: buffer
[5] = Clearance in mouse at 5.5 mg/kg, iv; type: ADME, organism-based; design: dose 5.5 mg/kg, route intravenous; settings: in vivo
[6] = Volume of distribution at steady state in mouse at 5.5 mg/kg, iv; type: ADME, organism-based; design: dose 5.5 mg/kg, route intravenous; settings: in vivo, read-out: Vdss
G1/S-specific cyclin-D3 = target: T1, G1/S-specific cyclin-D3 (Homo sapiens, UniProt P30281); test: Inhibition of Cyclin D3/CDK6
T1 sequence (P30281 whole entry): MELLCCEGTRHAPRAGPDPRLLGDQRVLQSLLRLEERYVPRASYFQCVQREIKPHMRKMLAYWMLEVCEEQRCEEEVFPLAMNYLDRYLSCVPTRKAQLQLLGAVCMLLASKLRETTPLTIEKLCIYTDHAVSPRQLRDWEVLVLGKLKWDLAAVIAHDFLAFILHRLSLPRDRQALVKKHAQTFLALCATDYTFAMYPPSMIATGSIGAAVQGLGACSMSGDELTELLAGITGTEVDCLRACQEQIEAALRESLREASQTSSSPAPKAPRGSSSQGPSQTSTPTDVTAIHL

[7] = Cmax in mouse at 10 mg/kg, po; type: ADME, organism-based; design: dose 10 mg/kg, route oral; settings: in vivo
[8] = AUC (0 to t) in mouse at 10 mg/kg, po; type: ADME, organism-based; design: dose 10 mg/kg, route oral; settings: plasma
[9] = Tmax in mouse at 10 mg/kg, po; type: ADME, organism-based; design: dose 10 mg/kg, route oral; settings: in vivo
[10] = target: G2/mitotic-specific cyclin-B1 (Homo sapiens, UniProt P14635); test: Inhibition of Cyclin B1/CDK1
[11] = Oral bioavailability in mouse at 10 mg/kg; type: ADME, organism-based; settings: in vivo
G1/S-specific cyclin-E1 = G1/S-specific cyclin-E1 (Homo sapiens, UniProt P24864); test: Inhibition of Cyclin E/CDK2
G1/S-specific cyclin-E1, sequence (P24864 whole entry): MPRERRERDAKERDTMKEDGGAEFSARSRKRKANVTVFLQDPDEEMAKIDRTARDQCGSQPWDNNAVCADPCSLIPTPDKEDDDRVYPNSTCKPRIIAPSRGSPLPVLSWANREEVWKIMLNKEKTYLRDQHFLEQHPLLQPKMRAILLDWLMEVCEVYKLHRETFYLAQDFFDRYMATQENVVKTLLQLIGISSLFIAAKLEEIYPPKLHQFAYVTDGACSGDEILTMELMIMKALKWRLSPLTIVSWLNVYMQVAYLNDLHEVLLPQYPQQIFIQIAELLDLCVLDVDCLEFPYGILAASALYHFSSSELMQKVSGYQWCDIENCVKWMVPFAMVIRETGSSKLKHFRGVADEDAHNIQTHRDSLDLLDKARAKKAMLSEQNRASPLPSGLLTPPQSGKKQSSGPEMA

Cyclin-dependent kinase 4, sequence (P11802 whole entry): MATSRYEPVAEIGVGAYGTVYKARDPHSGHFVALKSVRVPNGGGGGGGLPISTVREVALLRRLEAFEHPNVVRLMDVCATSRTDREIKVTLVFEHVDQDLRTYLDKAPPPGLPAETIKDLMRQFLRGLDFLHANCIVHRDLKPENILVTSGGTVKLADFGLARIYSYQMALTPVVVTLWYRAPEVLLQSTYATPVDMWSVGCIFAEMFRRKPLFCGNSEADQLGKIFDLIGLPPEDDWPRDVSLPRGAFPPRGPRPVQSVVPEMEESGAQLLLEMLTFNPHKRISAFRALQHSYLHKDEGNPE
G2/mitotic-specific cyclin-B1, sequence (P14635 whole entry): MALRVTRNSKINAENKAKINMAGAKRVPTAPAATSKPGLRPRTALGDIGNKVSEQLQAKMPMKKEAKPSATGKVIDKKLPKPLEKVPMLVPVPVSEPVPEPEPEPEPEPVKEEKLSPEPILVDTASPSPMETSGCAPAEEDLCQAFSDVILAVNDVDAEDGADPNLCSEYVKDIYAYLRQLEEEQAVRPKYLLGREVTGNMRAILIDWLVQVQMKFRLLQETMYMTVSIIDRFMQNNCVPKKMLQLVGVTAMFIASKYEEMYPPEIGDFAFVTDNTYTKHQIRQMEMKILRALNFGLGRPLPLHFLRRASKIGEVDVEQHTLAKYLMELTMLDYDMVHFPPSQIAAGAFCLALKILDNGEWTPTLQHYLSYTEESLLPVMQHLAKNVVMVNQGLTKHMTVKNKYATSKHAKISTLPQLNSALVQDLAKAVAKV

Row | SMILES | IC50 (MCF7) [µM] | IC50 [1] [µM] | IC50 [3] [µM] | IC50 (LoVo) [µM] | further results
1 | COCCNS(=O)(=O)c1ccc(Nc2nccc(-c3cnc4ccccn34)n2)cc1 | 0.4 | < 0.012 |  |  | 
2 | COCCNS(=O)(=O)c1ccc(Nc2nccc(-c3cnc4cccnn34)n2)cc1 |  |  |  |  | fraction unbound [2]: 0.008
3 | Cc1ncc(-c2ccnc(Nc3ccc(S(=O)(=O)CCCN(C)C)cc3)n2)n1C(C)C |  | 0.036 | 0.14 | 0.89 | fraction unbound [2]: 0.32; solubility (physchem): > 6800 µM; logD [4]: 1.3
4 | Cc1ncc(-c2ccnc(Nc3ccc(S(=O)(=O)CCCN4CCOCC4)cc3)n2)n1C(C)C |  | 0.033 | 0.21 | 1.2 | 
5 | Cc1ncc(-c2ccnc(Nc3ccc(S(=O)(=O)Cc4ccccc4)cc3)n2)n1C(C)C |  | 0.019 | 1.5 | 1.5 | 
6 | COCCNS(=O)(=O)c1ccc(Nc2nccc(-c3c(C)nc(C)n3C)n2)cc1 |  | 0.068 | > 8.6 | 9.2 | 
7 | Cc1ncc(-c2ccnc(Nc3ccc(S(=O)(=O)CCCN(C)C)cc3)n2)n1C |  | 0.295 |  |  | 
8 | COCCNS(=O)(=O)c1ccc(Nc2nccc(-c3cnc(C)n3C(C)C)n2)cc1 |  |  | 0.2 | 0.31 | 
9 | COCCNS(=O)(=O)c1ccc(Nc2nccc(-c3cnc(C)n3C3CCCC3)n2)cc1 |  | < 0.003 |  | 0.61 | 
10 | CN(C)CCNS(=O)(=O)c1ccc(Nc2nccc(-c3cnc4cccnn34)n2)cc1 | 0.26 |  |  |  | 
11 | Cc1ncc(-c2ccnc(Nc3ccc(S(N)(=O)=O)cc3)n2)n1C | 0.87 | 0.011 |  |  | 
12 | CCCS(=O)(=O)c1ccc(Nc2nccc(-c3cnc(C)n3C(C)C)n2)cc1 |  | 0.008 |  | 1.8 | 
13 | CNS(=O)(=O)c1ccc(Nc2nccc(-c3cnc(C)n3C)n2)cc1 | 0.5 | < 0.003 |  |  | 
14 | Cc1ncc(-c2ccnc(Nc3ccc(S(=O)(=O)NCCN(C)C)cc3)n2)n1C | 0.49 | 0.025 |  |  | 
15 | COCCN(C)S(=O)(=O)c1ccc(Nc2nccc(-c3cnc(C)n3C)n2)cc1 |  | 0.4 |  |  | 
16 | CCn1c(-c2ccnc(Nc3ccc(S(=O)(=O)NCCOC)cc3)n2)cnc1C |  | 0.004 | 1.3 | 1.5 | fraction unbound [2]: 0.014
17 | COCCNS(=O)(=O)c1ccc(Nc2nccc(-c3cnc(C)n3CC(C)C)n2)cc1 |  | 0.015 |  | 1.8 | 
18 | CCn1c(-c2ccnc(Nc3ccc(S(C)(=O)=O)cc3)n2)cnc1C |  | 0.023 |  |  | 
19 | CN(C)CCCNS(=O)(=O)c1ccc(Nc2nccc(-c3cnc4cccnn34)n2)cc1 |  |  |  |  | fraction unbound [2]: 0.148; solubility (physchem): 160 µM (≈ 72.4 µg/mL); logD [4]: 1.4
20 | Cc1ncc(-c2ccnc(Nc3ccc(S(=O)(=O)CC4CCCO4)cc3)n2)n1C(C)C (stereo not drawn) |  | 0.013 | 0.53 | 1.2 | 
21 | COCCS(=O)(=O)c1ccc(Nc2nccc(-c3cnc(C)n3C(C)C)n2)cc1 |  | 0.014 | 0.49 | 0.69 | 
22 | CNS(=O)(=O)c1ccc(Nc2nccc(-c3cnc4cccnn34)n2)cc1 | 0.56 | < 0.003 |  |  | 
23 | COCCNS(=O)(=O)c1ccc(Nc2nccc(-c3cnc(C)n3C)n2)cc1 | 0.62 | 0.008 | 5.6 | 4 | 
24 | Cc1ncc(-c2ccnc(Nc3ccc(S(=O)(=O)NCCCOC(C)C)cc3)n2)n1C | 0.32 | 0.006 |  |  | 
25 | CN(C)CCNS(=O)(=O)c1ccc(Nc2nccc(-c3cnc4ccccn34)n2)cc1 |  |  |  |  | fraction unbound [2]: 0.03; solubility (physchem): 31 µM (≈ 13.6 µg/mL); logD [4]: 2.7
26 | NS(=O)(=O)c1ccc(Nc2nccc(-c3cnc4ccccn34)n2)cc1 | 0.26 | 0.002 |  |  | fraction unbound [2]: 0.001; solubility (physchem): 6.5 µM (≈ 2.38 µg/mL); logD [4]: 2.7
27 | Cc1ncc(-c2ccnc(Nc3ccc(S(C)(=O)=O)cc3)n2)n1C(C)C [AZD-5438] |  |  |  | 0.63 | fraction unbound [2]: 0.087; clearance [5]: 21.8 mL/min/kg; solubility (physchem): 218 µM (≈ 81 µg/mL); Vd [6]: 1.01 L/kg; IC50 (G1/S-specific cyclin-D3): 0.021 µM; Cmax [7]: 6.4 µM; AUC(0-t) [8]: 18.7 µM·h; Tmax [9]: 19.8 min; IC50 [10]: 0.016 µM; bioavailability [11]: 91%; IC50 (G1/S-specific cyclin-E1): 0.006 µM; logD [4]: 2.4
